{"source": "ChEMBL document CHEMBL1128939", "about": "“New simplified inhibitors of EPSP synthase: The importance of ring size for recognition at the shikimate 3-phosphate site” (Bioorg Med Chem Lett, 1996)", "data": [{"target": "T1, 3-phosphoshikimate 1-carboxyvinyltransferase (Escherichia coli K-12, UniProt P0A6D3)", "T1 sequence (P0A6D3 whole entry)": "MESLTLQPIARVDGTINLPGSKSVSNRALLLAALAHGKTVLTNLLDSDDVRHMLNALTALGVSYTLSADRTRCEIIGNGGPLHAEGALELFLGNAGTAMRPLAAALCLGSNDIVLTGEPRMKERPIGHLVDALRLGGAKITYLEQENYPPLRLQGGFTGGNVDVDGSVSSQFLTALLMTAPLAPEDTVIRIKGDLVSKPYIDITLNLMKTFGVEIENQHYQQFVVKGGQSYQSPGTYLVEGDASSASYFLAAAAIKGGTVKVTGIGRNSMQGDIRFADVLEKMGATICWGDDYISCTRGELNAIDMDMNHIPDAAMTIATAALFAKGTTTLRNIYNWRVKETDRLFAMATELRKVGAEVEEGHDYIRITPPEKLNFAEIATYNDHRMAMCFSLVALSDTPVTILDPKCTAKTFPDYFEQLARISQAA", "test": "(§1) Compound was tested for inhibitory activity against EPSP(5-enolpyruvylshikimate 3-phosphate) synthase in Escherichia coli.", "details": "not given", "units": {"IC50": "µM"}, "values": [{"smiles": "O=C(O)c1cccc(P(=O)(O)O)n1", "IC50": 50000}, {"smiles": "O=C(O)c1ccc(O)c(C(O)(C(=O)O)C(=O)O)c1", "IC50": 20000}, {"smiles": "O=C(O)C1CCC(P(=O)(O)O)N1", "note": "(stereo not drawn)", "IC50": 50000}, {"smiles": "O=C(O)c1cccc(P(=O)(O)O)c1", "IC50": 50000}, {"smiles": "O=C(O)c1cccn1CP(=O)(O)O", "IC50": 50000}]}, {"target": "T1, 3-phosphoshikimate 1-carboxyvinyltransferase", "test": "as §1", "details": "read-out: Kd app", "units": {"Kd": "µM"}, "values": [{"smiles": "O=C(O)C1=C[C@@H](OP(=O)(O)O)[C@@H](O)[C@H](O[C@](CF)(OP(=O)(O)O)C(=O)O)C1", "Kd": 0.0006}]}, {"target": "T1, 3-phosphoshikimate 1-carboxyvinyltransferase", "test": "as §1", "details": "read-out: Ki app", "units": {"Ki": "µM"}, "values": [{"smiles": "O=C(O)C1=C[C@@H](OP(=O)(O)O)[C@@H](O)CC1", "Ki": 13}, {"smiles": "O=C(O)c1cc(C(O)P(=O)(O)O)c[nH]1", "note": "(stereo not drawn)", "Ki": 0.0145}, {"smiles": "O=C(O)C1=C[C@@H](OP(=O)(O)O)[C@@H](O)[C@H](O[C@](OP(=O)(O)O)(C(=O)O)C(F)(F)F)C1", "Ki": 0.032}, {"smiles": "C[C@@](O[C@@H]1CC(C(=O)O)=C[C@@H](OP(=O)(O)O)[C@H]1O)(C(=O)O)P(=O)(O)O", "Ki": 0.005}, {"smiles": "O=C(O)C1=C[C@@H](OP(=O)(O)O)[C@@H](O)[C@H](O[C@](OP(=O)(O)O)(C(=O)O)C(F)F)C1", "Ki": 0.004}, {"smiles": "O=C(O)c1cc(OC(C(=O)O)C(=O)O)cc(OC(C(=O)O)P(=O)(O)O)c1", "note": "(stereo not drawn)", "Ki": 1.3}, {"smiles": "O=C(O)c1cc(OC(C(=O)O)P(=O)(O)O)c(O)c(C(O)(C(=O)O)C(=O)O)c1", "note": "(stereo not drawn)", "Ki": 0.52}]}]}
